This passage reports IC50 results from US20070037785A1, “Novel dipeptidyl peptidase IV inhibitors used for functionally influencing different cells and treating immunological, infammatory, neuronal, and other diseases” (priority 2003, published 2007).

The first experiment deals with dipeptidyl peptidase IV (Homo sapiens, UniProt P27487). As to the kind of experiment: biochemical. As to conditions: values marked with "*" are ID50 values; read-out: IC50DPIV, values marked with "*" = ID50.
Sequence of dipeptidyl peptidase IV (P27487 whole entry, species assumed): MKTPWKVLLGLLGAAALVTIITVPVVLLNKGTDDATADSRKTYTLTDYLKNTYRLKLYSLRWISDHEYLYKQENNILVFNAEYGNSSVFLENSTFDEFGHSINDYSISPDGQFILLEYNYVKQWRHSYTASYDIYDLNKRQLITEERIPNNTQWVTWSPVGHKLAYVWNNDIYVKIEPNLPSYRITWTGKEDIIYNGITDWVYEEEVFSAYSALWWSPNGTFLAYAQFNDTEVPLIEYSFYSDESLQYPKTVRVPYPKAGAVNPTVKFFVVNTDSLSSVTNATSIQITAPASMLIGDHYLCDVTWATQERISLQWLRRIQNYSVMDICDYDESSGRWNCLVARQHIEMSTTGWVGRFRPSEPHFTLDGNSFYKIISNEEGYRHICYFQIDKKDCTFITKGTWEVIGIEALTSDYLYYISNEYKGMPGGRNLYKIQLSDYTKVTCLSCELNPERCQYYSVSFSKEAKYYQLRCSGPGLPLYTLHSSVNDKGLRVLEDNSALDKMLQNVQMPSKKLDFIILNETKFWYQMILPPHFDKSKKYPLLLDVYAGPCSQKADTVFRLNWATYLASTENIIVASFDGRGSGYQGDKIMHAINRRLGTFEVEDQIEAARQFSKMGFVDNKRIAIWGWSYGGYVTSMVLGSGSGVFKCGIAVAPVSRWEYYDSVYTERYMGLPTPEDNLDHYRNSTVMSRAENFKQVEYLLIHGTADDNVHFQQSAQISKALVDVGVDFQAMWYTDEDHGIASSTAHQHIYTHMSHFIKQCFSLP
Take `O=C(Cn1c2ccccc2c(=O)c2ccccc21)N/N=C/c1ccc(O)c(O)c1` [D10.092]: the IC50 stood at 63.5 µM.

Turning to `Cc1cccc(NCC(=O)N/N=C/c2cc(Br)c(O)c(O)c2Br)c1` [D10.094], the IC50 stood at 65.5 µM.

Regarding `CC(C)(C)c1cc2oc3c(c2c(/C=N/NC(=O)c2ccc(O)cc2O)c1O)CCCC3` [D10.097], the IC50 was determined as 74.7 µM.

Take `COc1cc(/C=N/NC(=O)c2ccc(NC(=O)c3ccccc3C)cc2)cc(OC)c1OC` [D10.100]: the IC50 is 91 µM.

The experiment is the same for the next values; noted with them: values without "*" = IC-50; read-out: IC50DPIV.
Take `COc1c(OC(C)=O)ccc(/C=N/NC(=O)CNc2cccc(C)c2)c1[N+](=O)[O-]` [D10.019]: the IC50 was determined as 12.7 µM.

For `O=C(CCCCC(=O)N/N=C/c1ccccc1[N+](=O)[O-])N/N=C/c1ccccc1[N+](=O)[O-]` [D10.020], the IC50 was found to be 12.8 µM.

As for `Cc1cccc(C(=O)Oc2c(Br)cc(Br)cc2/C=N/NC(=O)CNC(=O)c2ccc(Cl)cc2)c1` [D10.021], the IC50 was 13.2 µM.

On to `C/C(=N\NC(=O)CSCc1ccccc1Br)c1ccc(I)cc1` [D10.022], for which the IC50 turned out to be 13.2 µM.

With `CCOc1cc(/C=N/NC(=O)c2cc(C)n[nH]2)ccc1O` [D10.023], the IC50 amounted to 13.6 µM.

For the compound `CCOc1cc(/C=N/NC(=O)c2cc(C)oc2C)ccc1O` [D10.025], the IC50 was 16.2 µM.

As to `O=C(N/N=C/c1ccc(-c2ccc(Cl)cc2)o1)/C(=C/c1ccc([N+](=O)[O-])cc1)NC(=O)c1ccccc1` [D10.026], the IC50 stood at 16.4 µM.

As to `CCOc1cc(/C=N\NC(=O)c2cnccn2)ccc1O` [D10.027], the IC50 amounted to 16.7 µM.

Regarding `O=C(N/N=C/c1ccc(OC(=O)c2ccco2)c([N+](=O)[O-])c1)/C(=C\c1cccs1)NC(=O)c1ccccc1` [D10.028], the IC50 was determined as 16.7 µM.

Take `O=C(N/N=C/c1cc([N+](=O)[O-])cc([N+](=O)[O-])c1O)/C(=C\c1cccs1)NC(=O)c1ccccc1` [D10.029]: the IC50 amounted to 17.5 µM.

With `Cc1ccc(OCC(=O)N/N=C\c2ccc(O)c([N+](=O)[O-])c2)c([N+](=O)[O-])c1` [D10.030], the IC50 was 17.8 µM.

On to `COc1ccc2ccccc2c1/C=N/NC(=O)c1cc2ccccc2cc1O` [D10.031], for which the IC50 is 17.8 µM.

Take `O=C(CNc1ccc2ccccc2c1)N/N=C1/C(=O)Nc2ccc([N+](=O)[O-])cc21` [D10.032]: the IC50 was determined as 18.2 µM.

Consider `COc1cc(/C=N/NC(=O)COc2ccc(C(C)(C)CC(C)(C)C)cc2)cc([N+](=O)[O-])c1O` [D10.033], for which the IC50 was found to be 18.9 µM.

Consider `CCOc1cc(/C=N/NC(=O)c2cc(O)c(O)c(O)c2)ccc1O` [D10.034], for which the IC50 is 19.1 µM.

Take `CCOc1cc(/C=N/NC(=O)COc2ccc(Cl)cc2)ccc1OC(=O)c1ccc(Br)cc1` [D10.035]: the IC50 stood at 20 µM.

For the compound `O=C(Cn1nnc(-c2ccc(F)cc2)n1)N/N=C/c1ccc(-c2ccc3c(c2)COC3=O)o1` [D10.036], the IC50 was 20.3 µM.

Consider `CCN(CC)c1ccc(/C=C(/NC(=O)c2ccccc2)C(=O)N/N=C/c2c(C)c(Br)c(O)c(Br)c2O)cc1` [D10.037], for which the IC50 was found to be 20.4 µM.

In the case of `CC(/C=N/NC(=O)CNc1ccc(C)cc1)=C\c1ccc(/C=C(C)/C=N/NC(=O)CNc2ccc(C)cc2)cc1` [D10.038], the IC50 was 20.5 µM.

For `CCOc1cc(/C=N/NC(=O)c2cc(C3CC3)[nH]n2)ccc1O` [D10.039], the IC50 is 20.8 µM.

As to `O=C(N/N=C/c1ccc([N+](=O)[O-])o1)c1ccccc1I` [D10.040], the IC50 stood at 20.9 µM.

Regarding `COc1cc(/C=N/NC(=O)c2ccco2)cc(OC)c1OC(C)=O` [D10.041], the IC50 came out at 21.8 µM.

As to `O=C(N/N=C/c1cc(Br)ccc1OC(=O)c1ccco1)/C(=C\c1cccs1)NC(=O)c1ccccc1` [D10.042], the IC50 came out at 24.1 µM.

For the compound `O=C(N/N=C\c1cccc(OC(=O)c2ccc([N+](=O)[O-])cc2)c1)/C(=C/c1ccc2c(c1)OCO2)NC(=O)c1ccccc1` [D10.043], the IC50 was 24.2 µM.

Consider `O=C(COc1cccc([N+](=O)[O-])c1)N/N=C/c1ccc(O)c([N+](=O)[O-])c1` [D10.044], for which the IC50 was determined as 24.4 µM.

In the case of `Cc1ccc(/C=N/NC(=O)c2ccc(NC(=O)c3cccc([N+](=O)[O-])c3)cc2)o1` [D10.045], the IC50 was determined as 28.8 µM.

On to `COc1cc(Br)c(OCC(=O)N/N=C/c2cc(Br)c(O)c(O)c2Br)c(Br)c1` [D10.046], for which the IC50 stood at 29.2 µM.

On to `C/C(=N\NC(=O)c1cc(C)n[nH]1)c1ccc(-c2ccccc2)cc1` [D10.047], for which the IC50 is 29.8 µM.

Regarding `O=C(COc1cccc(Cl)c1)N/N=C/c1ccc(O)c([N+](=O)[O-])c1` [D10.049], the IC50 was 31.9 µM.

On to `COc1cc(Br)cc(Br)c1OCC(=O)N/N=C/c1ccc(O)c([N+](=O)[O-])c1` [D10.050], for which the IC50 is 32.1 µM.

Regarding `CN(C)c1ccc(/C=C(\NC(=O)c2ccccc2)C(=O)N/N=C/c2cc(/N=N/c3ccccc3)ccc2O)cc1` [D10.051], the IC50 amounted to 33.9 µM.

As for `CC(=O)Oc1ccc(-c2ccc(/C=N/NC(=O)C34CC5CC(C3)CC(c3ccc(C)cc3)(C5)C4)cc2)cc1` [D10.052], the IC50 was found to be 32.9 µM.

On to `COc1ccc(/C(C)=N/NC(=O)CNc2ccc3ccccc3c2)cc1OC` [D10.053], for which the IC50 was 32.9 µM.

On to `O=C(N/N=C/c1cccc(Oc2ccccc2)c1)c1cc(Br)cc(Br)c1O` [D10.054], for which the IC50 is 33.3 µM.

`C/C(=N\NC(=O)/C(=C\c1ccc(F)cc1)NC(=O)c1ccccc1)c1ccccc1O` [D10.055]: the IC50 worked out at 33.4 µM.

On to `O=C(N/N=C/c1c(O)ccc2ccccc12)c1cc(-c2ccc(-c3ccccc3)cc2)n[nH]1` [D10.056], for which the IC50 turned out to be 33.5 µM.

Regarding `CN(/N=C/c1sc(=O)[nH]c1Cl)c1ccccc1` [D10.057], the IC50 was 32.4 µM.

On to `COc1ccc(/C=N/N=C2\NC(=O)C(Cc3cccc(C(F)(F)F)c3)S2)cc1` (stereo not drawn) [D10.058], for which the IC50 was 34.2 µM.

As to `O=C(N/N=C/c1cccc(I)c1)c1cc(Br)ccc1O` [D10.060], the IC50 stood at 36.3 µM.

Regarding `CN(C)c1ccc(/C=C(\NC(=O)c2ccccc2)C(=O)N/N=C/c2ccccc2[N+](=O)[O-])cc1` [D10.061], the IC50 is 39.2 µM.

Regarding `O=C(N/N=C/c1cc(I)cc(I)c1O)c1ccc(NC(=O)c2ccccc2)cc1` [D10.062], the IC50 came to 39.7 µM.

With `COc1ccc(C(=O)N/N=C/c2ccc(Cl)cc2Cl)cc1` [D10.063], the IC50 amounted to 40.4 µM.

For the compound `Cc1ccc(C)n1-c1cccc(C(=O)N/N=C/c2cc(Br)c(O)c(Br)c2)c1` [D10.065], the IC50 stood at 41 µM.

On to `COc1cc(/C=N/NC(=O)CNC(=O)c2ccc(Cl)cc2)ccc1OC(=O)c1cccc(F)c1` [D10.066], for which the IC50 came out at 42 µM.

Take `COc1cc(Br)ccc1OCC(=O)N/N=C/c1cc(Br)c(O)c(O)c1Br` [D10.067]: the IC50 was 45 µM.

`COc1ccc(Br)cc1/C=N/NC(=O)COc1ccc(C)cc1[N+](=O)[O-]` [D10.068]: the IC50 is 45.6 µM.

As to `O=C(N/N=C/c1cc([N+](=O)[O-])cc([N+](=O)[O-])c1O)/C(=C/c1ccc([N+](=O)[O-])cc1)NC(=O)c1ccccc1` [D10.069], the IC50 stood at 45.7 µM.

Turning to `COc1cc(/C=N/NC(=O)/C(=C/c2ccc(N(C)C)cc2)NC(=O)c2ccccc2)cc(Br)c1O` [D10.070], the IC50 was determined as 46.2 µM.

Take `Cc1cccc(C(=O)N/N=C/c2c(O)ccc3ccccc23)c1` [D10.072]: the IC50 is 46.7 µM.

Turning to `O=C(Cn1c2ccccc2c(=O)c2ccccc21)N/N=C/c1cc(I)c(O)c([N+](=O)[O-])c1` [D10.073], the IC50 turned out to be 52.3 µM.

In the case of `CC(C)(C)CC(C)(C)c1ccc(OCC(=O)N/N=C/c2ccc(OC(=O)c3ccco3)c([N+](=O)[O-])c2)cc1` [D10.074], the IC50 stood at 52.9 µM.

In the case of `CCN(CC)C(=O)C1CCCN(c2ccc([N+](=O)[O-])cc2/C=N/NC(=O)c2cccc([N+](=O)[O-])c2)C1` (stereo not drawn) [D10.075], the IC50 worked out at 54 µM.

On to `O=C(N/N=C/C=C/c1ccccc1)c1cc(C2CC2)n[nH]1` [D10.076], for which the IC50 was found to be 55 µM.

With `Cc1ccc(Cn2cccc2/C=N/NC(=S)Nc2ccc(C)c(C)c2)cc1` [D10.077], the IC50 is 55.2 µM.

`CCOc1cccc(/C=N/NC(=O)c2cc(-c3ccc(F)cc3)n[nH]2)c1O` [D10.078]: the IC50 was 55.3 µM.

For the compound `COc1c(O)ccc(/C=N/NC(=O)COc2c(Br)cc(Br)cc2Br)c1[N+](=O)[O-]` [D10.079], the IC50 amounted to 55.4 µM.

`C/C(=N\NC(=O)c1cc(C(C)(C)C)n[nH]1)c1ccc(Cl)cc1` [D10.081]: the IC50 was found to be 55.7 µM.

On to `COc1cc(C(=O)Oc2c(Br)cc(Br)cc2/C=N/NC(=O)COc2ccc(C)cc2)cc(OC)c1OC` [D10.082], for which the IC50 worked out at 55.9 µM.

Regarding `CCOc1ccc(/C=N/NC(=O)c2cc(-c3c(OC)ccc4ccccc34)n[nH]2)cc1` [D10.083], the IC50 was found to be 56.3 µM.

For `Cc1cccc(C)c1OCC(=O)N/N=C/c1cc(Br)cc(Br)c1OC(=O)c1ccccc1I` [D10.084], the IC50 stood at 57 µM.

On to `Cc1ccc(/C=N/NC(=O)c2cccc(I)c2)o1` [D10.085], for which the IC50 stood at 57.7 µM.

For `COc1ccc(C(=O)N/N=C/c2cc(O)c(O)c(Br)c2Br)cc1` [D10.086], the IC50 was found to be 57.8 µM.

Take `COc1cc(/C=N/NC(=O)c2ccccc2OC(C)C)ccc1O` [D10.087]: the IC50 turned out to be 58.7 µM.

On to `Cc1ccccc1SCC(=O)N/N=C/c1ccc(C)c([N+](=O)[O-])c1` [D10.088], for which the IC50 turned out to be 58.8 µM.

As to `O=C(N/N=C/c1cc(Br)c(O)c(Br)c1O)/C(=C\c1ccc2c(c1)OCO2)NC(=O)c1ccccc1` [D10.089], the IC50 turned out to be 60 µM.

For the compound `O=C(N/N=C\c1ccc(OCc2ccccc2Cl)cc1)c1ccc2c(c1)OCO2` [D10.090], the IC50 was 62.1 µM.

On to `N#Cc1ccc(/C=N/NC(=O)c2ccccc2[N+](=O)[O-])cc1` [D10.091], for which the IC50 worked out at 62.2 µM.

For `COc1cc(/C=N/NC(=O)CNC(=O)c2cccc(F)c2)ccc1OC(=O)c1ccccc1Cl` [D10.093], the IC50 was determined as 63.5 µM.

Regarding `O=C(COc1ccc2ccccc2c1)N/N=C/c1c(Br)cc(Br)c(O)c1Br` [D10.095], the IC50 worked out at 69.6 µM.

As to `N#Cc1ccc(/C=N/NC(=O)c2cc([N+](=O)[O-])ccc2O)cc1` [D10.098], the IC50 worked out at 81.4 µM.

`CCOc1cc(/C=N/NC(=O)c2cc(-c3ccco3)n[nH]2)ccc1O` [D10.099]: the IC50 came to 84.9 µM.
